In this experiment the target is T1, FAAH (Rattus norvegicus, UniProt P97612).
T1 construct: Preparation of Rat Brain Membranes Preparations (FAAH Enzyme Solution); from tissue; host or cells: rat cerebrum (brain membrane preparation)
T1 sequence (P97612 1-579): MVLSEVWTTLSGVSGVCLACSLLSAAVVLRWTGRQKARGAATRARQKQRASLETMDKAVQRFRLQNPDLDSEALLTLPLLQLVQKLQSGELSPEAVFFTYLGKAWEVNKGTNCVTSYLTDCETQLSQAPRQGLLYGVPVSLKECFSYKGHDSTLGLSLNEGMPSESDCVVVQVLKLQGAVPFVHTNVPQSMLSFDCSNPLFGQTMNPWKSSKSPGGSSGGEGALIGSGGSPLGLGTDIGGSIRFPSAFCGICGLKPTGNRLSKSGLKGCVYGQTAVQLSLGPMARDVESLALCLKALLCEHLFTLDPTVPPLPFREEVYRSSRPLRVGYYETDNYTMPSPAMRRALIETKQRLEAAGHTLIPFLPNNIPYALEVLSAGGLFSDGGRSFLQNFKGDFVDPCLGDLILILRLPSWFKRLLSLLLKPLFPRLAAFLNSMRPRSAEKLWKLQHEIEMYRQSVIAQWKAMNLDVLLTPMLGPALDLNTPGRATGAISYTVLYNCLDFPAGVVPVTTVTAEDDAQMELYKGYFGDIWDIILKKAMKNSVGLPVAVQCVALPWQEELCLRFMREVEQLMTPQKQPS
In words: Determination of FAAH inhibitory activity in rat (rat brain membrane preparations, [3H]-anandamide hydrolysis). Format: biochemical. The settings on record: rat brain membrane preparations; for pIC50: read-out: FAAH Inhibition IC50. The method, boiled down: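 Rat cerebrum membranes (100 μg/mL protein) preincubated 10 min at 37 °C with compound (1% DMSO) in pH 7.6 Tris buffer with 1.5% BSA. Substrate 2 nM [3H]-anandamide plus 2 μM anandamide added for 10 min at 37 °C. [3H]-ethanolamine in the aqueous phase after chloroform/methanol extraction was scintillation counted; IC50 over 0.1 nM–1 μM.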

The mark [1] stands for this setting: 100 nM test substance, read-out: FAAH Inhibition, Inhibition Rate at 100 nM.
Where [2] appears, read: at 100 nM, read-out: FAAH Inhibition Inhibition Rate at 100 nM.

Each structure is given as a SMILES string. pIC50: −log10 of the molar value. Where a name gives a salt, the structure may show the parent alone. Read-outs that look alike come from different tables or passages of the source.

For the molecule `Cc1ccc(CCc2ncc3c(n2)n(C(=O)N(C)C)c(=O)n3C)cc1` [Example 494, N,N,7-Trimethyl-2-[2-(4-methylphenyl)ethyl]-8-oxo-7,8-dihydro-9H-purine-9-carboxamide], the inhibition – broadly, the relative decrease from the control value, in per cent – at 0.1 µM under setting [1] stood at 98%. Moreover, the pIC50 (in general, the IC50 on a negative log10 scale, so that one unit is a factor of ten) (test substance 0.1 nM to 1 μM) is 7.96.

Consider `CN(C)C(=O)n1c(=O)n(C)c2cnc(CCc3cc(F)cc(F)c3)nc21` [Example 497, 2-[2-(3,5-Difluorophenyl)ethyl]-N,N,7-trimethyl-8-oxo-7,8-dihydro-9H-purine-9-carboxamide], for which the “FAAH Inhibition, Inhibition Rate at 100 nM” value (100 nM test substance, 0.1 µM) stood at 94%. The pIC50 (test substance 0.1 nM to 1 μM) was 7.60.

As to `CN(C)C(=O)n1c(=O)n(C)c2cnc(CCc3ccc(F)cc3F)nc21` [Example 506, 2-[2-(2,4-Difluorophenyl)ethyl]-N,N,7-trimethyl-8-oxo-7,8-dihydro-9H-purine-9-carboxamide], the inhibition at 0.1 µM under setting [1] was determined as 94%. Also, the pIC50 (test substance 0.1 nM to 1 μM) is 7.55.

`CN(C)C(=O)n1c(=O)n(C)c2cnc(CCc3cccc(OCC(F)F)c3)nc21` [Example 530, 2-{2-[3-(2,2-Difluoroethoxy)phenyl]ethyl}-N,N,7-trimethyl-8-oxo-7,8-dihydro-9H-purine-9-carboxamide]: the inhibition at 0.1 µM under setting [1] turned out to be 66%. For the same molecule, the pIC50 (test substance 0.1 nM to 1 μM) is 7.28.

`CN(C)C(=O)n1c(=O)n(C)c2cnc(CCc3ccc(F)cc3)nc21` [Example 533, 2-[2-(4-Fluorophenyl)ethyl]-N,N,7-trimethyl-8-oxo-7,8-dihydro-9H-purine-9-carboxamide]: under setting [1], the inhibition at 0.1 µM amounted to 53%. For the same molecule, where the note is “test substance 0.1 nM to 1 μM”, the pIC50 was 7.00.

For `CN(C)C(=O)n1c(=O)n(C)c2cnc(CCc3ccc(OCC(F)F)cc3)nc21` [Example 538, 2-{2-[4-(2,2-Difluoroethoxy)phenyl]ethyl}-N,N,7-trimethyl-8-oxo-7,8-dihydro-9H-purine-9-carboxamide], the inhibition at 0.1 µM under setting [1] was 51%.

Regarding `CN(C)C(=O)n1c(=O)n(C)c2cnc(CCc3ccc(C(F)(F)F)cc3)nc21` [Example 540, N,N,7-Trimethyl-8-oxo-2-{2-[4-(trifluoromethyl)phenyl]ethyl}-7,8-dihydro-9H-purine-9-carboxamide], under setting [1], the inhibition at 0.1 µM came out at 88%. In addition, the pIC50 (test substance 0.1 nM to 1 μM) is 7.77.

With `CN(C)C(=O)n1c(=O)n(C)c2cnc(CCc3cccc(OCC(F)(F)F)c3)nc21` [Example 552, N,N,7-Trimethyl-8-oxo-2-{2-[3-(2,2,2-trifluoroethoxy)phenyl]ethyl}-7,8-dihydro-9H-purine-9-carboxamide], the inhibition at 0.1 µM under setting [1] came to 98%. For the same molecule, the pIC50 (test substance 0.1 nM to 1 μM) is 7.82.

`CN(C)C(=O)n1c(=O)n(C)c2cnc(CCc3ccc(OCC(F)(F)F)cc3)nc21` [Example 553, N,N,7-Trimethyl-8-oxo-2-{2-[4-(2,2,2-trifluoroethoxy)phenyl]ethyl}-7,8-dihydro-9H-purine-9-carboxamide]: the inhibition at 0.1 µM under setting [1] was found to be 97%. Also, for the setting “test substance 0.1 nM to 1 μM”, the pIC50 was 8.05.

As to `Cn1c(=O)n(C(=O)N2CCC2)c2nc(CCc3ccc(C(F)F)cc3)ncc21` [Example 576, 9-(Azetidin-1-ylcarbonyl)-2-{2-[4-(difluoromethyl)phenyl]ethyl}-7-methyl-7,9-dihydro-8H-purine-8-one], the inhibition at 0.1 µM under setting [1] was 110%. Under “test substance 0.1 nM to 1 μM”, the pIC50 was 8.00.

Regarding `Cn1c(=O)n(C(=O)N2CCC2)c2nc(CCc3cc(F)cc(F)c3)ncc21` [Example 580, 9-(Azetidin-1-ylcarbonyl)-2-[2-(3,5-difluorophenyl)ethyl]-7-methyl-7,9-dihydro-8H-purine-8-one], under setting [1], the inhibition at 0.1 µM was 81%. Also, the pIC50 (test substance 0.1 nM to 1 μM) is 7.60.

As for `Cn1c(=O)n(C(=O)N2CCC2)c2nc(CCc3ccccc3F)ncc21` [Example 583, 9-(Azetidin-1-ylcarbonyl)-2-[2-(2-fluorophenyl)ethyl]-7-methyl-7,9-dihydro-8H-purine-8-one], the inhibition at 0.1 µM under setting [1] was determined as 87%. Further, the pIC50 (test substance 0.1 nM to 1 μM) was 7.03.

With `Cn1c(=O)n(C(=O)N2CCC2)c2nc(CCc3ccc(F)cc3)ncc21` [Example 587, 9-(Azetidin-1-ylcarbonyl)-2-[2-(4-fluorophenyl)ethyl]-7-methyl-7,9-dihydro-8H-purine-8-one], under setting [1], the inhibition at 0.1 µM worked out at 68%. Further, the pIC50 (test substance 0.1 nM to 1 μM) was 7.29.

As for `Cn1c(=O)n(C(=O)N2CCC2)c2nc(CCc3ccc(OCC(F)F)cc3)ncc21` [Example 593, 9-(Azetidin-1-ylcarbonyl)-2-{2-[4-(2,2-difluoroethoxy)phenyl]ethyl}-7-methyl-7,9-dihydro-8H-purine-8-one], the inhibition at 0.1 µM under setting [1] was found to be 58%. The pIC50 (test substance 0.1 nM to 1 μM) was 7.23.

Consider `Cn1c(=O)n(C(=O)N2CCC2)c2nc(CCc3cccc(OCC(F)(F)F)c3)ncc21` [Example 612, 9-(Azetidin-1-ylcarbonyl)-7-methyl-2-{2-[3-(2,2,2-trifluoroethoxy)phenyl]ethyl}-7,9-dihydro-8H-purine-8-one], for which the pIC50 was 8.05. The inhibition at 0.1 µM under setting [2] turned out to be 96%.

For the molecule `Cn1c(=O)n(C(=O)N2CCC2)c2nc(CCc3ccc(OCC(F)(F)F)cc3)ncc21` [Example 613, 9-(Azetidin-1-ylcarbonyl)-7-methyl-2-{2-[4-(2,2,2-trifluoroethoxy)phenyl]ethyl}-7,9-dihydro-8H-purine-8-one], the pIC50 was 7.92. Also, the inhibition at 0.1 µM under setting [2] worked out at 95%.

Consider `CN(C)C(=O)n1c(=O)n(C)c2cnc(CCCc3ccccc3)nc21` [Example 614], for which the pIC50 was 7.55. Besides, the inhibition at 0.1 µM under setting [2] was determined as 81%.

For the molecule `CN(C)C(=O)n1c(=O)n(C)c2cnc(CCC3CCCCC3)nc21` [Example 615], the pIC50 is 8.00. For the same molecule, the inhibition at 0.1 µM under setting [2] turned out to be 96%.

In the case of `CN(C)C(=O)n1c(=O)n(C)c2cnc(CCCC3CCCCC3)nc21` [Example 616], the pIC50 is 8.00. The inhibition at 0.1 µM under setting [2] was 99%.

Turning to `CN(C)C(=O)n1c(=O)n(C)c2cnc(CCCC3CCCC3)nc21` [Example 617], the pIC50 was 8.22. Moreover, the inhibition at 0.1 µM under setting [2] was 93%.

On to `CN(C)C(=O)n1c(=O)n(C)c2cnc(CCCCc3ccccc3)nc21` [Example 618], for which the pIC50 was 8.00. Besides, the inhibition at 0.1 µM under setting [2] is 101%.

For the molecule `Cn1c(=O)n(C(=O)N2CCC2)c2nc(CCCC3CCCCC3)ncc21` [Example 619], the pIC50 was 8.05. Moreover, under setting [2], the inhibition at 0.1 µM worked out at 103%.

As to `Cn1c(=O)n(C(=O)N2CCC2)c2nc(CCc3ccc4c(c3)CCO4)ncc21` [Example 620], the pIC50 is 7.06. Besides, the inhibition at 0.1 µM under setting [2] amounted to 87%.

On to `CCCc1ncc2c(n1)n(C)c(=O)n2C(=O)N1CC(Oc2ccccc2CC)C1` [Example 629], for which the pIC50 is 6.98. For the same molecule, the inhibition at 0.1 µM under setting [2] turned out to be 48%.

On to `Cn1c(=O)n(C(=O)N2CC(c3ccc(F)cc3)C2)c2nc(C3CC3)ncc21` [Example 630], for which the pIC50 was 8.00. Under setting [2], the inhibition at 0.1 µM worked out at 102%.

As for `Cn1c(=O)n(C(=O)N2CC(c3ccccc3)C2)c2nc(C3CC3)ncc21` [Example 631], the pIC50 was 7.44. In addition, under setting [2], the inhibition at 0.1 µM worked out at 77%.

In the case of `Cn1c(=O)n(C(=O)N2CC(c3cccc(F)c3)C2)c2nc(C3CC3)ncc21` [Example 632], the pIC50 was 7.51. For the same molecule, the inhibition at 0.1 µM under setting [2] worked out at 84%.

Turning to `CCCc1ncc2c(n1)n(C(=O)N1CC(c3cccc(F)c3)C1)c(=O)n2C` [Example 633], the pIC50 is 7.72. Further, the inhibition at 0.1 µM under setting [2] was 82%.

Regarding `CCc1ncc2c(n1)n(C(=O)N1CC(c3ccccc3)C1)c(=O)n2C` [Example 634], the pIC50 was 7.01. For the same molecule, the inhibition at 0.1 µM under setting [2] turned out to be 95%.

For `CCc1ncc2c(n1)n(C(=O)N1CC(c3cccc(F)c3)C1)c(=O)n2C` [Example 635], the pIC50 was 7.36. Under setting [2], the inhibition at 0.1 µM came to 88%.

Take `CCCc1ncc2c(n1)n(C(=O)N1CC(c3ccc(F)cc3)C1)c(=O)n2C` [Example 636]: the pIC50 is 7.11. The inhibition at 0.1 µM under setting [2] was found to be 94%.

As to `CCCc1ncc2c(n1)n(C(=O)N1CC(c3ccccc3)C1)c(=O)n2C` [Example 637], the pIC50 was 8.15. For the same molecule, the inhibition at 0.1 µM under setting [2] is 102%.

As for `CN(C)C(=O)n1c(=O)n(C)c2cnc(CCOc3ccc(C(F)(F)F)cc3)nc21` [Example 638, N,N,7-trimethyl-8-oxo-2-{2-[4-(trifluoromethyl)phenoxy]ethyl}-7,8-dihydro-9H-purine-9-carboxamide hydrochloric acid salt], the pIC50 is 7.92. In addition, the inhibition at 0.1 µM under setting [2] stood at 95%.

Take `CN(C)C(=O)n1c(=O)n(C)c2cnc(CCOc3cccc(Cl)c3)nc21` [Example 641, 2-[2-(3-Chlorophenoxy)ethyl]-N,N,7-trimethyl-8-oxo-7,8-dihydro-9H-purine-9-carboxamide]: the pIC50 is 8.10. For the same molecule, under setting [2], the inhibition at 0.1 µM amounted to 105%.

As for `CCn1c(=O)n(C(=O)N(C)C)c2nc(CCc3ccccc3F)ncc21` [Example 643], the pIC50 was 7.80. Under setting [2], the inhibition at 0.1 µM was 97%.
